The assay has as its system TKp53^L/Lp16^L/L melanoma cells. Put plainly: in vitro scratch (wound healing) assay with dasatinib. The conditions noted are these: 30 nM dasatinib, 12 hours after wounding. Format: cell-based, murine. How it is done: FIG. 4C is a bar graph of closure index for TKp53^L/Lp16^L/L melanoma cells with LKB1 knockdown treated with vehicle (shLkb1+DMSO) or 30 nM dasatinib (shLkb1+Dasatinib) and for TKp53^L/Lp16^L/L melanoma cells without Lkb1 knockdown treated with vehicle (NS+DMSO) or 30 nM dasatinib (NS+Dasatinib). Closure index was measured 12 hours after wounding. The asterisks indicate a significant difference (P<0.05).
The in vitro scratch (wound healing) assay was performed as described previously. See Carretero et al., 2010. Briefly, a 1 mm wide scratch was made on a confluent monolayer, and cells were then allowed to grow under standard conditions for 12 hours. The migrated distance was quantified using Image J™ software. “Close Index” was determined as 1-f, where f is calculated as the remaining gap area divided by the starting scratched area. Cell invasion was measured using matrigel invasion assay using invasion chambers obtained from BD Biosciences (San Jose, Calif., United States of America), with assays performed according to the manufacturer's instructions. Cells of the indicated genotypes (2.5×10^4) were added to the upper chamber in 500 uL of serum-free medium, and the lower chamber was filled with 750 uL of medium containing 10% fetal bovine serum (FBS) as an attractant. After 24 hours of incubation, cells on the underside of the filter were fixed, stained and counted. […]

With `Cc1nc(Nc2ncc(C(=O)Nc3c(C)cccc3Cl)s2)cc(N2CCN(CCO)CC2)n1` [dasatinib], the “decrease in cell migration (closure index)” value is 14% (Lkb-intact melanoma cells (NS)) and 27% (melanoma cells with Lkb1 knockdown (shLkb1)).

The values are drawn from patent US20140378469A1, “LKB1/STK11 DELETION IN MELANOMA AND RELATED METHODS” (The University of North Carolina at Chapel Hill, priority 2012, published 2014).
